Each compound was assayed against T1, Xanthine dehydrogenase/oxidase (Bos taurus, UniProt P80457) (assay: Inhibition of bovine xanthine oxidase by spectrophotometry). Conditions: not given.
T1 sequence (P80457 whole entry): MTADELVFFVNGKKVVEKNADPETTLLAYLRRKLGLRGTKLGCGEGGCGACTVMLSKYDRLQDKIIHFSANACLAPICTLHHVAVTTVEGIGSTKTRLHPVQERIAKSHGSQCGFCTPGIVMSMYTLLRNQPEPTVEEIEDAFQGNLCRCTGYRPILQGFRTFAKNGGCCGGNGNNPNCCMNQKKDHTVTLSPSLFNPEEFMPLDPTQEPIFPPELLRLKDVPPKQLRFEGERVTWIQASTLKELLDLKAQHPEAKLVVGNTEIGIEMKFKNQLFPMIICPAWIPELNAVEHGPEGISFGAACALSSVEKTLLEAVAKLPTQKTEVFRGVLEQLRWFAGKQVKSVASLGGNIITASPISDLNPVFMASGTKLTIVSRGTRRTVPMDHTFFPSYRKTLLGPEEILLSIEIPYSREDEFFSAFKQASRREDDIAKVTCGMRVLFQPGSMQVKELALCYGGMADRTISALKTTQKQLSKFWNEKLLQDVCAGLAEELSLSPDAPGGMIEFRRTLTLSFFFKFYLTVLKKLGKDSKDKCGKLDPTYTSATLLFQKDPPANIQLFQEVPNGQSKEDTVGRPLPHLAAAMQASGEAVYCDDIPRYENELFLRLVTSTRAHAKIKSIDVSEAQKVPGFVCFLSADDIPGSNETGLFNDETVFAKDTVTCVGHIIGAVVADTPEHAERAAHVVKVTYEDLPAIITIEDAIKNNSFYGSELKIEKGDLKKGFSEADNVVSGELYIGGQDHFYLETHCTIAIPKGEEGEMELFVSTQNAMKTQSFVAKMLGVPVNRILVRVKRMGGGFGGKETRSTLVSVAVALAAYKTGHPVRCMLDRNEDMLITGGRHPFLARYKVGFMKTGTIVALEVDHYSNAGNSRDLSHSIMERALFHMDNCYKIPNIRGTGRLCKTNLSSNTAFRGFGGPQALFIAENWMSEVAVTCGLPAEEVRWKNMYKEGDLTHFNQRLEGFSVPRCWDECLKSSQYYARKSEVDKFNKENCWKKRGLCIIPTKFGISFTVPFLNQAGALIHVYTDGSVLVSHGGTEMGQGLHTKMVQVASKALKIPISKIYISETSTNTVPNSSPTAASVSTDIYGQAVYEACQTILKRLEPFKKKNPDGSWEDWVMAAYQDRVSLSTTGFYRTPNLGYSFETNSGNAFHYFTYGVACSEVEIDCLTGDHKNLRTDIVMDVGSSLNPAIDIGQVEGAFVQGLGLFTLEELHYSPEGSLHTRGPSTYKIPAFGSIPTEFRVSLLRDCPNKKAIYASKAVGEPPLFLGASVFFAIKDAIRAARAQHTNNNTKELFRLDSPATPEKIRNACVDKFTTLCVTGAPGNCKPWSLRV

| SMILES | IC50 [µM] |
| --- | --- |
| CC(C)(C)c1ccc(COc2ccc(-c3cc(C(=O)O)[n-][o+]3)cc2[N+](=O)[O-])cc1 | 12.8 |
| N#Cc1cc(-c2cc(C(=O)O)no2)ccc1OCc1ccccc1 | 0.59 |
| CC(C)(C)c1ccc(COc2ccc(-c3cc(C(=O)O)no3)cc2C#N)cc1 | 1.01 |
| O=C(O)c1cc(-c2ccc(OCc3ccc(Cl)cc3)c([N+](=O)[O-])c2)on1 | 2.83 |
| CC(C)COc1ccc(-c2cc(C(=O)O)no2)cc1[N+](=O)[O-] | 1 |
| O=C(O)c1cc(-c2ccc(OCc3ccccc3)c([N+](=O)[O-])c2)on1 | 0.97 |
| N#Cc1cc(-c2cc(C(=O)O)no2)ccc1OCc1ccc(Cl)cc1 | 0.63 |

What follows are compounds tested against T1, Xanthine dehydrogenase/oxidase (assay: Inhibition of bovine xanthine oxidase at 10 ug/ml by spectrophotometry). Conditions: cattle.

| SMILES | inhibition at 10 µg/mL [%] |
| --- | --- |
| Cc1ccc(COc2ccc(-c3cc(C(=O)O)no3)cc2[N+](=O)[O-])cc1 | < 50 |
| Cc1ccc(COc2ccc(-c3cc(C(=O)O)no3)cc2C#N)cc1 | < 50 |

Source: ChEMBL document CHEMBL1165871, “Synthesis of some 5-phenylisoxazole-3-carboxylic acid derivatives as potent xanthine oxidase inhibitors” (Eur J Med Chem, 2010)
